Three compounds from article PMC5930436, “Overexpressed HDAC8 in cervical cancer cells shows functional redundancy of tubulin deacetylation with HDAC6” (Cell Communication and Signaling : CCS, 2018) can be followed below.

“Also recorded” adds a separate entry of the source.

Assay [1] deals with acetylated alpha tubulin, HEK 293 T. Description: Immunoblot of acetylated alpha tubulin in HEK 293 T cells. In kind it is cell-based, human. Conditions: 24 h. The protocol:
Human embryonic kidney cells, HEK293T, human cervical carcinoma cells, HeLa, human breast cancer cells, MDA-MB 231, human lung adenocarcinoma cellsA549, chronic myeloid leukemia cells, K562, and human colon cancer cells, HCT11, were obtained from National Centre for Cell Sciences (NCCS), Pune, India. Cell line authentication by STR analysis was performed for 10 genetic loci for all the cell lines by Life code, Genomic technologies Pvt. Ltd., and tested for mycoplasma negative by performing PCR (mycoplasma specific genes) using EZdetect PCR kit for mycoplasma detection (CCK009). All the cells were cultured in high glucose DMEM medium containing 10% foetal bovine serum and 1% Penicillin/streptomycin (Himedia). Cells were seeded in 60 mm dishes and upon attaining 80–90% confluency, treatment was given with PCI-34051(Cayman Chemicals) (10 μM/20 μM) and tubastatin (5 μM) for 24 h or both in combination (PCI-34051 and Tubastatin) and Forskolin (Sigma) (10 μM) for 45 min independently along with untreated control as described earlier.
Total, cytoplasmic and nuclear fractions of HeLa or HEK 293 T cells treated with or without PCI-34051 (20 μM), [12] tubastatin (5 μM) and/or forskolin (10 μM) were prepared as described previously. Total protein samples of HEK 293 T, HeLa, MDAMB 231, K562, A549 and HCT11 cells / immunoprecipitated HDAC8 and HDAC6 samples from both HeLa and HEK 293 T lysates / HDAC8 siRNA transfected HEK 293 T and HeLa lysates were also prepared. The proteins were separated on 10 or 12% SDS-PAGE, transferred on to nitrocellulose membrane and probed with primary antibodies of HDAC8, Beta actin, Alpha tubulin, anti-acetylated alpha tubulin, HDAC6 and GAPDH. The bands were visualized using chemiluminiscence after probing with HRP-conjugated secondary antibody.
Source for siRNA oligonucleotides were considered from with sequence, HDAC8 Sense: […] and Anti-sense: […]. The oligonucleotides were converted into siRNA by following standard protocol as described earlier. HeLa and HEK 293 T cells were transfected with HDAC8 siRNA (10–15 μg/100 mm dish) using lipofectamine 2000 (Invitrogen), and considering untransfected as control. Cells were harvested after 72 h of post-transfection and processed for total RNA and protein isolation.

For assay [2], the system named is GST-HDAC8. Put plainly: HPLC-based in vitro deacetylation assay with GST-HDAC8. In kind it is biochemical, human. Conditions: GST-HDAC8 (2 μM; 30 μg) + peptide (500 nM), 15 min, 37 °C, 50 mM Tris pH 7.5, 1 mM DTT, HPLC C18. The protocol: (§1) hHDAC8 (Full length) cDNA was amplified by using a polymerase chain reaction (PCR) with forward primer: 5′– […]-3′ and a reverse primer: 5’–[…]–3′. The PCR product was then sub cloned into pGEX- 6P1 plasmid. Clone was then overexpressed in Escherichia coli strain BL21 (DE3) with standardized expression conditions of 0.1 mM IPTG at 28 °C for 4 h. Induced culture pellet was lysed in 1XPBS buffer (140 mM NaCl, 2.7 mM KCl, 10 mM Na2HPO4, 1.8 mM KH2PO4) along with 1X Protease inhibitor cocktail, 1 mM PMSF, and 0.1 mM DTT. To the lysate 1% Triton X 100 is added and centrifuged for 20 min at a speed of 4000 rpm at 4 °C. Clear supernatant was used for binding with GST binding buffer (25 mM Tris pH 7.5, 300 mM NaCl, 1 mM EDTA, 1X Protease inhibitor cocktail) for 3 h on a rota spin at 4 °C. Binding was followed by collection of unbound and washes with 1X PBS (5 washes). Elutions were collected in 10 mM reduced glutathione, dissolved in 50 mM Tris pH 8.0. The purity of the protein was then analysed on SDS PAGE, followed by Western blot. Activity was then determined by HDAC activity assay.
In vitro deacetylation assay of custom synthesized acetylated (Lys40) alpha tubulin was carried out on HPLC (Schimadzu) with C18 (4.6 × 250 mm) column as described earlier. […]

Assay [3] deals with GST-HDAC8. Description: Circular dichroism binding study with GST-HDAC8. The arrangement: species or system human. To be noted: GST-HDAC8 (2 μM) + peptide (500 nM), 25 °C, 190-300 nm. The protocol: as §1
Binding studies of GST-HDAC8 protein (2 μM) and acetylated (Lys40) or unacetylated alpha tubulin peptides (500 nM) were carried out on Jasco J-1500 (model L-1500-450) CD spectroscopy. Changes incurred in the secondary structure of GST-HDAC8 upon binding of the peptides were recorded as the mean ellipticity, with given set of parameters: start wavelength of 300 nm, end wavelength of 190 nm, scan speed of 100 nm/min, band width of 2 nm, cuvette cell size of 2 mm and at a temperature of 25 °C with two scan accumulations.

As to `CN1CCc2c(c3ccccc3n2Cc2ccc(C(=O)NO)cc2)C1` [Tubastatin], the “acetylated alpha tubulin levels, compared to PCI-34051 (20 μM) treated condition” value in assay [1] (HEK 293T, tubastatin (5 μM) vs PCI-34051 (20 μM)) is recorded as “increases ac-alpha tubulin levels”. Moreover, in assay [1] (HEK 293 T, tubastatin (5 μM), HDAC6 inhibition), the “acetylated alpha tubulin levels” value is reported as “increase in ac-alpha tubulin levels”.

Regarding “DGQMPSDKTIGGGD [ac-alpha tubulin peptide, Custom synthesized peptides of alpha tubulin 33–46 amino acids, Acetylated alpha tubulin peptide, at Lys40 …]”, the “in vitro deacetylation by GST-HDAC8 (shift to retention time of unacetylated peptide)” value in the assay with GST-HDAC8 [2] is listed as “clearly demonstrates the in vitro deacetylation of ac-alpha tubulin by GST-HDAC8”; in the assay on GST-HDAC8 [2] (listed as acetylated alpha tubulin (Lys40) peptide), “significant peak shift in the retention time corresponding to unacetylated peptide”. The “change in secondary structure of GST-HDAC8 (CD)” value with GST-HDAC8 [3] is reported as “significant change in the secondary structure of GST-HDAC8”; with GST-HDAC8 [3] (listed as acetylated alpha tubulin), “change in the secondary structure of GST-HDAC8; also recorded: significant change in the secondary structure”.

In the case of “DGQMPSDKTIGGGD [Unac-alpha tubulin peptide, Custom synthesized, Unacetylated Alpha tubulin peptide …]”, the entries for the “change in secondary structure of GST-HDAC8 (CD)” value in the assay on GST-HDAC8 [3] (listed as unacetylated form) and in the assay with GST-HDAC8 [3] (listed as unacetylated tubulin) were “without any notable differences” and “not observed”, respectively.
